Blank lines part the entries; values can stand above or below the molecule they belong to.
Legend:
SYK = molecular target: T1, SYK (Homo sapiens, UniProt P43405); assay: Kinase inhibition assay: SYK; assay type: biochemical; settings: at 1 μM concentration
T1 construct: Purified full-length human SYK, ZAP70, PIM1, PYK2; purchased Carna Biosciences
Protocol: (§1) Compounds of the present invention were tested for their capacity to inhibit a kinase panel which includes, but are not limited to, spleen tyrosine kinase (SYK), zeta-chain-associated protein kinase 70 (ZAP70), PTK2B protein tyrosine kinase 2 (PYK2), focal adhesion kinase (FAK), provirus integration of maloney kinase 1 (PIM1), rearranged during transfection kinase (RET), Fms-like tyrosine kinase 3 (FLT3), Janus kinase 2 (JAK2), and leucine-rich repeat kinase 2 (LRRK2).
(§2) Inhibition of SYK, ZAP70, PYK2, FAK, PIM1, RET, FLT3, JAK2 and LRRK2 Kinase Activity
(§3) Compounds of the invention were initially diluted to 10 mM in 100% DMSO (CALBIOCHEM™) for storage and made into kinase buffer solution to create a compound concentration ranging from 1 uM and 10 uM. Serial dilutions of compounds of the invention were dispensed into a 96-well plate (GREINER BIOSCIENCES™) at 6 μL each. Purified full-length human SYK, ZAP70, PIM1, PYK2 and truncated human FAK, RET, FLT3, JAK2, and LRRK2 (CARNA BIOSCIENCES™) were diluted in kinase buffer and added to the compound solutions and pre-incubated for 30 minutes at room temperature (1 hour for PYK2). […] The reaction mixture was incubated for 1 hour (2 hours for PYK2). Following the incubation, the stop solution made with EDTA, water, and Lance detection buffer ([…]™) was added (12μL each) to stop phosphorylation. […] The IC50 value of test compound was calculated at Gradpad Prism 5 unless specified otherwise.

PYK2 = molecular target: T2, PYK2 (Homo sapiens, UniProt Q14289); assay: Kinase inhibition assay: PYK2; assay type: biochemical; settings: at 1 μM concentration
T2 construct: Purified full-length human SYK, ZAP70, PIM1, PYK2; purchased Carna Biosciences
T2 sequence (Q14289 whole entry): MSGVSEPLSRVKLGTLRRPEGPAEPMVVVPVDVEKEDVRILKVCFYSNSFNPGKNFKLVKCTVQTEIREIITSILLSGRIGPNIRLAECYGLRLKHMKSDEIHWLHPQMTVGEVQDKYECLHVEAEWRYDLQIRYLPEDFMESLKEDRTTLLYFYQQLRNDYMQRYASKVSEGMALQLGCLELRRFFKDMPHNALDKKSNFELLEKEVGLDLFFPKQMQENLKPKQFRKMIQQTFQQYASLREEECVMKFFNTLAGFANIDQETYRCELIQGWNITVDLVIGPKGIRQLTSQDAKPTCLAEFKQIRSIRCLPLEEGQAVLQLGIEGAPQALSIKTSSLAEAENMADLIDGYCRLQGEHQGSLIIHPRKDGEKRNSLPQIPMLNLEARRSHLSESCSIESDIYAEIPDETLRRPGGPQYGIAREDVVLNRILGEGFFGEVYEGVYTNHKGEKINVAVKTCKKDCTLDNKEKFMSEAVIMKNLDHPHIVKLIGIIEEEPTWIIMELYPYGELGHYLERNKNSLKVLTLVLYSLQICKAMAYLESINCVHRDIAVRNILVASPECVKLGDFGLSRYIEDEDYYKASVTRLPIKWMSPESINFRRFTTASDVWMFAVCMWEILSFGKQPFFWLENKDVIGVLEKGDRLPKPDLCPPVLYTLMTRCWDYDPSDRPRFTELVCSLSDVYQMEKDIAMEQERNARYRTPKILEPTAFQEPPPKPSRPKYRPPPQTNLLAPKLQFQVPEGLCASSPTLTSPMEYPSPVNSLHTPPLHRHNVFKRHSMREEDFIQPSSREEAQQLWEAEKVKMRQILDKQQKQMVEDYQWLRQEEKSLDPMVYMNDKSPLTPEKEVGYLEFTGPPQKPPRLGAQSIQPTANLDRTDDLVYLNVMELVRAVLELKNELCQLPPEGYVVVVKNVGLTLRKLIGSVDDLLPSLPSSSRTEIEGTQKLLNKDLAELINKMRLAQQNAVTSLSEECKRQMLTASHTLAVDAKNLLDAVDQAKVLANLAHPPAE
Protocol: as §1, §2, §3

FAK = molecular target: T3, FAK (Homo sapiens, UniProt Q05397); assay: Kinase inhibition assay: FAK; assay type: biochemical; settings: at 1 μM concentration
T3 construct: truncated human FAK, RET, FLT3, JAK2, and LRRK2; purchased Carna Biosciences
T3 sequence (Q05397 376-1052 limits assumed): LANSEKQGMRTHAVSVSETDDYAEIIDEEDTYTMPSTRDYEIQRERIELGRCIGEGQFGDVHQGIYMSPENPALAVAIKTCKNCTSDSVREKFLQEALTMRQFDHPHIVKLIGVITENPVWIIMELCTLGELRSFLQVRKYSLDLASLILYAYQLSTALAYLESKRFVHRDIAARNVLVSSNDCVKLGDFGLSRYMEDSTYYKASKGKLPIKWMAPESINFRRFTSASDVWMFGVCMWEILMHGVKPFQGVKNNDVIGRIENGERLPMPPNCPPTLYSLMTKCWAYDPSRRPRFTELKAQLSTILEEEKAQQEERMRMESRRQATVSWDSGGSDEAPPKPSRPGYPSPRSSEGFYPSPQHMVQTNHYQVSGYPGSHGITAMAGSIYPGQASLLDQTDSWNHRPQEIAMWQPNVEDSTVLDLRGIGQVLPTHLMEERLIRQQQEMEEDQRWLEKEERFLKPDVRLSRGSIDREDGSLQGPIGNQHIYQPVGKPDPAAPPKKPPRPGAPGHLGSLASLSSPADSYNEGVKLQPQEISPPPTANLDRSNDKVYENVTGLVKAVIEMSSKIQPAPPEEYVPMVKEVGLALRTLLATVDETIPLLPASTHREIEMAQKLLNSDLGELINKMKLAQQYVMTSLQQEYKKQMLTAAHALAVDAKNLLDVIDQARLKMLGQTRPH
Protocol: as §1, §2, §3

ZAP70 = molecular target: T4, ZAP70 (Homo sapiens, UniProt P43403); assay: Kinase inhibition assay: ZAP70; assay type: biochemical; settings: at 1 μM concentration
T4 construct: Purified full-length human SYK, ZAP70, PIM1, PYK2; purchased Carna Biosciences
T4 sequence (P43403 1-619): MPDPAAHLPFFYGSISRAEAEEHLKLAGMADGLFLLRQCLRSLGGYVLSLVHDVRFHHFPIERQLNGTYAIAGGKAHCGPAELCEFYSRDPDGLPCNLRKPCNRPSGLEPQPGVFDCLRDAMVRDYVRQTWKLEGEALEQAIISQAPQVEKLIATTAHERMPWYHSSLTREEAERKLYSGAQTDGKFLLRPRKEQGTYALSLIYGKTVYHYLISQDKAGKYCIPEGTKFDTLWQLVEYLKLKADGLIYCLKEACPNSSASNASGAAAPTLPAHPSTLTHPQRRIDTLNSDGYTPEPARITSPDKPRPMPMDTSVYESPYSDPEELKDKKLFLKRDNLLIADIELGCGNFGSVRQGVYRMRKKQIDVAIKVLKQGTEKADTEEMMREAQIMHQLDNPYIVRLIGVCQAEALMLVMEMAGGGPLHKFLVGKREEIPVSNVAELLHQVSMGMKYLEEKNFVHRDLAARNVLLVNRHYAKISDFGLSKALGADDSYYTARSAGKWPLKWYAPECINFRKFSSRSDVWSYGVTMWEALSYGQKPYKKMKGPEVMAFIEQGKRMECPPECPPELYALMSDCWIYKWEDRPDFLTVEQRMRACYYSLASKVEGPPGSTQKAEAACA
Protocol: as §1, §2, §3

HEL cells = assay: Cell viability assay: JAK2 inhibition; assay type: cell-based, human; settings: for IC50: Homo sapiens, 72-hour incubation, HEL cells expressing JAK2 V617F, read-out: Cell Viability: JAK2 kinase Inhibition HEL (IC50 nM)
Protocol: Compounds of the invention are tested for their effects on JAK2 inhibition in human erythroleukemic cell line (HEL) to illustrate potential efficacy at the cellular level. The Janus-associated kinase (JAK) family, comprised of four different protein tyrosine kinases JAK1, JAK2, JAK3, and TYK2, plays an important role in cellular survival, proliferation, and differentiation. V617F, a unique mutation in the JAK2 gene (a valine-to-phenylalanine substitution) results in constitutive kinase activity and promotes deregulated hematopoiesis. JAK2 V617F is frequently detected in myeloproliferative disorders (MPDs), a group of clonal hematopoietic stem cell disorders that include polycythemia vera (PV), essential thrombocythemia (ET), and idiopathic myelofibrosis (IMF), all of which have the potential to transform to acute myeloid leukemia. JAK2 V617F is constitutively phosphorylated and able to activate downstream signaling in the absence of cytokine stimulation.
Compounds of the present invention were tested for their effects on viability of HEL cells. For cell viability assay, HEL cells expressing human JAK2 V617F were obtained from the American Type Culture Collection (ATCC, Manassas, Va.). This cell line was maintained with Roswell Park Memorial Institute (RPMI) medium (HyClone™) containing 10 bovine calf serum (BCS; Hyclone™) supplemented iron. The HEL cells were seeded at 2×10^4 cells in 96 well culture plates, and serially diluted compound was then added. After a 72-hour incubation period at 37° C., viability of cells was measured using the ATPLite 1 step assay (Perkin-Elmer™) that is based on the quantification of ATP from viable cells. CellTiter Aqueous assay (Promega™) was also performed in parallel as an orthogonal assay. IC50 values were calculated using nonlinear regression and defined as the concentration needed for a 50 reduction in luminescence or absorbance treated versus untreated control cells (Prism™ Software).

FLT3 = molecular target: T5, FLT3 (Homo sapiens, UniProt P36888); assay: Kinase inhibition assay: FLT3; assay type: biochemical
T5 construct: truncated human FAK, RET, FLT3, JAK2, and LRRK2; purchased Carna Biosciences
T5 sequence (P36888 564-993 limits assumed): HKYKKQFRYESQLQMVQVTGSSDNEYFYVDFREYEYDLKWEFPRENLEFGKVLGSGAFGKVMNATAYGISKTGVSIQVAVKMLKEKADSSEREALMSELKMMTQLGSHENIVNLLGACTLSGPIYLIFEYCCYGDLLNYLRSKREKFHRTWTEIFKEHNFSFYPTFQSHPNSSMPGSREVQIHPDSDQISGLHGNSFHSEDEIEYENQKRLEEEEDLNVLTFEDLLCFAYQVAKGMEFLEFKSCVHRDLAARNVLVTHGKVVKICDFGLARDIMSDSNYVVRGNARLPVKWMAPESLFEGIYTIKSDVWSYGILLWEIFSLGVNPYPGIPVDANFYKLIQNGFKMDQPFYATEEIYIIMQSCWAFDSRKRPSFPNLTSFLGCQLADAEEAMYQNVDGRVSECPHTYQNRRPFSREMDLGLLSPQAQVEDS
Protocol: as §1, §2, §3

RET = molecular target: T6, RET (Homo sapiens, UniProt P07949); assay: Kinase inhibition assay: RET; assay type: biochemical
T6 construct: truncated human FAK, RET, FLT3, JAK2, and LRRK2; purchased Carna Biosciences
T6 sequence (P07949 658-1114 limits assumed): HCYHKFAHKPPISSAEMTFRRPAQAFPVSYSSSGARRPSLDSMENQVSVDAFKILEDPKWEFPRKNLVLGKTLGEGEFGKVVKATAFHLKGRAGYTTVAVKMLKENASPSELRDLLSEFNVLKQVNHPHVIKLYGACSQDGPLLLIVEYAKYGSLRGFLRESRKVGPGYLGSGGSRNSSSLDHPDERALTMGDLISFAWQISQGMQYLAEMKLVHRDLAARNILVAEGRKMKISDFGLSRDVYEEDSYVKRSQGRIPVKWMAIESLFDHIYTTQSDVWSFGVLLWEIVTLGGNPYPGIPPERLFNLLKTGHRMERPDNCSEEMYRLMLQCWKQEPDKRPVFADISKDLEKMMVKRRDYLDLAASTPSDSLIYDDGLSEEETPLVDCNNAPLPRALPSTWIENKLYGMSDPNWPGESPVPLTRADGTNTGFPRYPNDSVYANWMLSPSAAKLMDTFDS
Protocol: as §1, §2, §3

JAK2 = JAK2 (Homo sapiens, UniProt O60674); assay: Kinase inhibition assay: JAK2; assay type: biochemical; design: truncated human FAK, RET, FLT3, JAK2, and LRRK2; purchased Carna Biosciences
JAK2, sequence (O60674 826-1132 limits assumed): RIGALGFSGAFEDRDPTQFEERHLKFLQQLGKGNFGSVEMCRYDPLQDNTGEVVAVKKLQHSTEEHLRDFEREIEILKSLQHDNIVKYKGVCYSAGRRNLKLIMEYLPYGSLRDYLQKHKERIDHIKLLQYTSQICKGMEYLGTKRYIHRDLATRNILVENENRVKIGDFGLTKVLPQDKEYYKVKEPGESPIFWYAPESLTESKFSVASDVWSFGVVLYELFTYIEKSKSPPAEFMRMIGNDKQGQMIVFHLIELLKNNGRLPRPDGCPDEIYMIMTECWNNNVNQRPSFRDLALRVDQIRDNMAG
Protocol: as §1, §2, §3

LRRK2 = molecular target: T7, LRRK2 (Homo sapiens, UniProt Q5S007); assay: Kinase inhibition assay: LRRK2; assay type: biochemical; settings: for inhibition at 1 µM: at 1 μM concentration
T7 construct: truncated human FAK, RET, FLT3, JAK2, and LRRK2; purchased Carna Biosciences
T7 sequence (Q5S007 970-2527 limits assumed): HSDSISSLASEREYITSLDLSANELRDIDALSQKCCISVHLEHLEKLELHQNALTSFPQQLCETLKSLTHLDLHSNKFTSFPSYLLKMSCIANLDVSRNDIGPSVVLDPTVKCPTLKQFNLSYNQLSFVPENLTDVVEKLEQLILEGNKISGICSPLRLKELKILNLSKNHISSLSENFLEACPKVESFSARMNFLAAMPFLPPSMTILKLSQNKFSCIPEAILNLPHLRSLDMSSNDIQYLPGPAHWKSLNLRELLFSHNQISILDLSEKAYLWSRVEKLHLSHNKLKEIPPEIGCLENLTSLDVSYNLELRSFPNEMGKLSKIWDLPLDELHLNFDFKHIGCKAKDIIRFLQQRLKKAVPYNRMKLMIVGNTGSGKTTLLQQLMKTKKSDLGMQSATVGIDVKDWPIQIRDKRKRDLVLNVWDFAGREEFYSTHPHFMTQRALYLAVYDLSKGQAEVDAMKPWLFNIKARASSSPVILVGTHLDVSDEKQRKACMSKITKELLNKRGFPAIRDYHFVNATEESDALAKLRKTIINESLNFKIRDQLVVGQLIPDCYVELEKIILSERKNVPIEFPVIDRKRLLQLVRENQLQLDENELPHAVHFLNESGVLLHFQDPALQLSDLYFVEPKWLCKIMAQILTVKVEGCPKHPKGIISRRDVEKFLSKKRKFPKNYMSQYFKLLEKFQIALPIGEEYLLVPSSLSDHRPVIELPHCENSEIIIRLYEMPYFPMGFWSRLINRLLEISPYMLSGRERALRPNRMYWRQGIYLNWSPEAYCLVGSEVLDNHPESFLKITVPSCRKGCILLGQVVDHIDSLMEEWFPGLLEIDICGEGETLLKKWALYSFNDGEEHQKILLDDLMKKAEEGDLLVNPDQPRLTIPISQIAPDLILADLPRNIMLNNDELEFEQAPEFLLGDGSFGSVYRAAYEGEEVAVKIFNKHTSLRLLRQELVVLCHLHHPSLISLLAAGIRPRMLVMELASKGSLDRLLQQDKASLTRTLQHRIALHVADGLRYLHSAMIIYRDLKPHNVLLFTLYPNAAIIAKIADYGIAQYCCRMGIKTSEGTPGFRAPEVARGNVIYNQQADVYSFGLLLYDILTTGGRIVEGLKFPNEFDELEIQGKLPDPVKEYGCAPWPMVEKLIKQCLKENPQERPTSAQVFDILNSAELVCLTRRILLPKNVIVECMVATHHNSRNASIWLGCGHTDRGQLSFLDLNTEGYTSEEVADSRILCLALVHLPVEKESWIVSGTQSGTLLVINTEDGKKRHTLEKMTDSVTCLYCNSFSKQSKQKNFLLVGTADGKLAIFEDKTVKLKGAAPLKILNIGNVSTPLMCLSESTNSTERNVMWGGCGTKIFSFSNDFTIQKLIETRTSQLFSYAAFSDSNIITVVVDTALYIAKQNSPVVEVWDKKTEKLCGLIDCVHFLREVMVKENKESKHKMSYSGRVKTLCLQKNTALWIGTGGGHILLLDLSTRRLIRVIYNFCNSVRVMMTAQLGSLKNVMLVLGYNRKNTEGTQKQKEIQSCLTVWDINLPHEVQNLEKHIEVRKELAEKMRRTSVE
Protocol: as §1, §2, §3

MV4-11 cells = assay: Cell viability assay: FLT3-ITD-positive cells; assay type: cell-based, human; settings: for IC50: Homo sapiens, MV4-11, 72-hour incubation, read-out: Viability of FLT3-ITD Induced Cancer Cell Line MV-4-11 (IC50 nM)
Protocol: Compounds of the invention were tested for their effects on inhibition of FLT3-ITD in human acute leukemia cell line (MV4-11). FLT3 is primarily expressed in immature hematopoietic progenitor as well as in mature myeloid cells. It belongs to type III receptor tyrosine kinase (RTK) family including KIT, FMS, and PDGFR. It is activated by binding to FL, which leads to increased kinase activity and activation of downstream signaling pathway including STATS, Ras, and PI3Kinase.
Compounds of the invention were tested for cell viability effect on MV4-11 cells. For cell viability assay, MV4-11 cells expressing human FLT3-ITD were obtained from the American Type Culture Collection (ATCC, Manassas, Va.). This cell line was maintained with an Roswell Park Memorial Institute (RPMI) medium (HyClone™) containing 10 bovine calf serum (BCS; Hyclone™) supplemented iron. The MV4-11 cells were seeded at 2×10^4 cells in 96-well culture plates, and serially diluted compound was then added. After a 72-hour incubation period at 37° C., cell viability was measured using the ATPLite 1 step assay (Perkin-Elmer™) that is based on the quantification of ATP from viable cells. CellTiter Aqueous assay (Promega™) was also performed in parallel as an orthogonal assay. IC50 values were calculated using nonlinear regression and defined as the concentration needed for a 50 reduction in luminescence or absorbance treated versus untreated control cells (Prism™ Software).

inhibition at 1 µM (SYK): 80.7%
inhibition at 1 µM (PYK2): 84.9%
inhibition at 1 µM (FAK): 34.1%
inhibition at 1 µM (ZAP70): 31.9%
SMILES: COc1cc(Nc2ncc(F)c(-n3cc(C)c(CO)c3)n2)cc(OC)c1 [Compound 16, (1-(2-(3,5-dimethoxy-phenylamino)-5-fluoro-pyrimidin-4-yl)-4-methyl-1H-pyrrol-3-yl)methanol]

IC50 (FLT3): 6.8 nM
IC50 (RET): 40.4 nM
IC50 (JAK2): 1.6 nM
SMILES: Cc1cn(-c2nc(Nc3ccc(N4CC[C@H](O)C4)c(C)c3)ncc2C)cc1CO [Compound 24, (S)-1-(4-(4-(3-(hydroxyl-methyl)-4-methyl-1H-pyrrol-1-yl)-5-methyl-pyrimidin-2-ylamino)-2-methylphenyl)pyrrolidin-3-ol]
inhibition level compared with Sorafenib (HEL cells; HEL): greater than those exhibited by Sorafenib
IC50 (HEL cells): 229 nM

inhibition at 1 µM (LRRK2): 31.4%
inhibition at 1 µM (FLT3; at 1 μM concentration): 53%
inhibition at 1 µM (RET; at 1 μM concentration): 42%
SMILES: Cc1cc(C)cc(Nc2nccc(-n3cc(C(=O)N(C)CCO)c(C)n3)n2)c1 [Compound 29, 1-(2-(3,5-dimethylphenylamino)pyrimidin-4-yl)-N-(2-hydroxyethyl)-N,3-dimethyl-1H-pyrazole-4-carboxamide]

inhibition at 1 µM (LRRK2): 44.3%
IC50 (RET): 51.3 nM
inhibition at 1 µM (JAK2; at 1 μM concentration): 40%
SMILES: Cc1cc(C)cc(Nc2nccc(-n3cc(C(=O)N4CC[C@@H](O)C4)c(C)n3)n2)c1 [Compound 32, (R)-(1-(2-(3,5-dimethylphenylamino)pyrimidin-4-yl)-3-methyl-1H-pyrazol-4-yl)(3-hydroxypyrrolidin-1-yl)methanone]

inhibition at 1 µM (SYK): 99.3%
inhibition at 1 µM (PYK2): 30.7%
inhibition at 1 µM (FAK): 13.9%
SMILES: Cc1cc(C)cc(Nc2nccc(-n3cc(C)c(CN4CC[C@@H](O)C4)c3)n2)c1 [Compound 41, (R)-1-((1-(2-(3,5-dimethylphenylamino)pyrimidin-4-yl)-4-methyl-1H-pyrrol-3-yl)methyl)pyrrolidin-3-ol]

IC50 (MV4-11 cells): 1.5 nM
IC50 (LRRK2): 424 nM
IC50 (FLT3): 0.4 nM
IC50 (RET): 5.2 nM
IC50 (JAK2): 36.5 nM
SMILES: COc1cc(Nc2ncc(C)c(-n3cc(C)c(CN4CC(O)C4)c3)n2)cc(OC)c1OC [Compound 91, 1-((4-methyl-1-(5-methyl-2-(3,4,5-trimethoxyphenylamino)pyrimidin-4-yl)-1H-pyrrol-3-yl)methyl)azetidin-3-ol]
inhibition level compared with Vandetinib and Sunitinib (MV4-11 cells; FLT3 ITD induced cancer cell line (MV4-11)): greater than those exhibited by Vandetinib and Sunitinib

IC50 (MV4-11 cells): 79.2 nM
IC50 (FLT3): 3.6 nM
IC50 (RET): 35.8 nM
IC50 (JAK2): 65.1 nM
SMILES: COc1cc(Nc2ncc(C)c(-n3cc(C)c(CN4CCCN(C(=O)C(C)(C)C)CC4)c3)n2)cc(OC)c1OC [Compound 97, 2,2-dimethyl-1-(4-((4-methyl-1-(5-methyl-2-(3,4,5-trimethoxyphenylamino)pyrimidin-4-yl)-1H-pyrrol-3-yl)methyl)-1,4-diazepan-1-yl)propan-1-one]

SMILES: CNC(=O)c1cc(Oc2ccc(NC(=O)Nc3ccc(Cl)c(C(F)(F)F)c3)cc2)ccn1 [Sorafenib, reference compound]
IC50 (HEL cells): > 1000 nM

From US8629132B2, “Kinase inhibitors” (Genosco, priority 2009, dated 2014)
